Key:
Assay type in all cases: binding
STARD1 = target: T1, STARD1 (Homo sapiens, UniProt P49675); test: Fluorescence polarisation (FP) competition with NBD-cholesterol, STARD1; conditions: single dose, Dose = 10 µM
T1 construct: STARD1(66-284); made in house; host or cells: E. coli BL21(DE3)
T1 sequence (P49675 66-284): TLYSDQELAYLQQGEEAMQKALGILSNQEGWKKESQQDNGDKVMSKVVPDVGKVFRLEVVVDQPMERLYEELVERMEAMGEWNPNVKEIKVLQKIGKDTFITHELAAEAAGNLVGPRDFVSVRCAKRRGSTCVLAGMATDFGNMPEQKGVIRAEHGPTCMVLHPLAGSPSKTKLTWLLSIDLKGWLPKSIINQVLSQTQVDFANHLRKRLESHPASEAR

OSBP = target: T2, OSBP (Homo sapiens, UniProt P22059); test: Fluorescence polarisation (FP) competition with NBD-cholesterol, OSBP; conditions: single dose; for OSBP (FP) inhibition: Dose = 10 µM
T2 construct: OSBP(377-807); host or cells: E. coli OverExpress C41
T2 sequence (P22059 377-807): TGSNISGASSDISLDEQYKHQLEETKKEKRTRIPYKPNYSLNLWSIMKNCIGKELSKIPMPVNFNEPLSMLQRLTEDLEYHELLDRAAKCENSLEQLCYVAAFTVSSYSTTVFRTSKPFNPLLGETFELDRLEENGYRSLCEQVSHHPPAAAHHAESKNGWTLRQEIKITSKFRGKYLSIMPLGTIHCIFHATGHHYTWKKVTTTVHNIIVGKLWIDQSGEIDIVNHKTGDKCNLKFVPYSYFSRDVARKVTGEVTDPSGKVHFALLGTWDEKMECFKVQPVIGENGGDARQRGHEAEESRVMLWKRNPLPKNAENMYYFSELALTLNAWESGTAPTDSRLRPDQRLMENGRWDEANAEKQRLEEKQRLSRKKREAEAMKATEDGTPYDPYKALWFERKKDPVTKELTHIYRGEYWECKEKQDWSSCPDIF
From the text: (§1) Protein expression constructs
(§2) Human ASTER domains of Aster-A(359-547), -B(364-552) and -C(318-504) were subcloned into a pGEX-6p-2rbs vector, thus introducing the cloning artifact ‘GPLGS’.3 The pGEX-6P-1-GST-OSBP(377- […]
(§3) a gift from James H. Hurley (University of California).4 The pHIS_2His6_Thrombin_STARD4(2-205;C75S) plasmid was a gift from Young Jun Im (Chonnam National University).5 STARD5A was a gift from Nicola Burgess-Brown (Addgene plasmid #42392; http://n2t.net/addgene:42392; […]
(§4) Protein expression and purification […]
(§5) vectors including an N-terminal PreScission-cleavable glutathione S-transferase (GST)-tag were expressed in Escherichia coli (E. coli) OverExpress C41 in Terrific Broth (TB) medium for 16 h at 18 °C after the induction with 0.1 mM isopropyl β-D-1-thiogalactopyranoside (IPTG). Cells were harvested at 3500 × g for 15 minutes and lysed by sonication in buffer containing 50 mM HEPES pH 7.5, 300 mM NaCl, 10 %v/v glycerol, 5 mM dithiothreitol (DTT), 0.1 %v/v Triton X-100 and protease inhibitor mix HP plus (Serva). The lysate was purified by affinity chromatography on a GSTrap FF column (Cytiva) using an ÄKTA Start (Cytiva) in buffer containing 50 mM HEPES pH 7.5, 300 mM NaCl, 10 %v/v glycerol, 5 mM DTT and 0.01 %v/v Triton X-100. The GST-tag was cleaved overnight on the column at 4 °C. The Aster sterol binding domains were further purified by size-exclusion chromatography (SEC) on a HiLoad 16/600 Superdex 75 pg (Cytiva) in buffer containing 20 mM HEPES pH 7.5, 300 mM NaCl, 10 %v/v […]
(§6) STARD5(6-213) harboring an N-terminal His6-Tag were expressed in E. coli BL21(DE3) in Luria-Bertani Broth (LB) medium for approximately 16 h at 18 °C after induction with 0.15 mM IPTG. Cells were harvested at 3500 × g for 15 minutes and lysed by sonication in buffer containing 50 mM HEPES pH 7.5, 150 mM NaCl, 5 %v/v glycerol, 5 mM DTT, 0.1 %v/v Triton X -100 and ethylenediaminetetraacetic acid (EDTA)-free protease inhibitor cocktail (Sigma-Aldrich). The cleared lysate was purified by affinity chromatography on a Ni-NTA Superflow Cartridge (Qiagen) using an ÄKTA Start (Cytiva) in buffer containing 50 mM HEPES pH 7.5, 150 mM NaCl, 5 %v/v glycerol, 5 mM DTT. START domains were eluted by using elution buffer containing 50 mM HEPES pH 7.5, 150 mM NaCl, 5 %v/v glycerol, 5 mM DTT and 500 mM imidazole. Proteins were further purified by SEC on a HiLoad 16/600 Superdex 75 pg (Cytiva) in buffer containing 20 mM HEPES pH 7.5, 150 mM NaCl, 5 %v/v glycerol and 2 mM DTT.
(§7) The ORP domain of human OSBP(377-807) in the pGEX-6p-1 vector with an N-terminal PreScission-cleavable GST-tag was expressed in E. coli OverExpress C41 in LB medium for 16 h at 18 °C after induction with 0.1 mM IPTG. Cells were harvested at 3500 × g for 15 minutes and lysed by sonication in buffer containing 20 mM HEPES pH 7.5, 300 mM NaCl, 10 %v/v glycerol, 5 mM DTT, 0.1 %v/v Triton X-100 and EDTA-free protease inhibitor cocktail (Sigma-Aldrich). The cleared lysate was purified by affinity chromatography on a GSTrap HF column (Cytiva) using an ÄKTA Start (Cytiva) in buffer containing 20 mM HEPES pH 7.5, 300 mM NaCl, 10 %v/v glycerol, 5 mM DTT. OSBP(377 -807) was eluted by using elution buffer containing 20 mM HEPES pH 7.5, 300 mM NaCl, 10 %v/v glycerol, 5 mM DTT and 10 mM reduced glutathione. Proteins were further purified by SEC on a HiLoad 16/600 Superdex 75 pg (Cytiva) using an ÄKTA Explorer (Cytiva) in buffer containing 20 mM HEPES pH 7.5, 150 mM NaCl, 10 %v/v glycerol and 2 mM DTT.
(§8) The ORP domains of human ORP1(534-950) in pET24b(+) and ORP2(49-480) in the pET24b(+) vector including an N-terminal His6-Tag were expressed in E. coli BL21(DE3) in TB medium for approximately 16 h at 18 °C after induction with 0.1 mM IPTG. Cells were collected at 3500 × g for 15 minutes and lysed by sonification in buffer containing 10 mM Tris-HCl pH 8, 300 mM NaCl, 5 % glycerol, 2 mM DTT, 0.1 % Triton X-100 and EDTA-free protease inhibitor cocktail (Sigma-Aldrich). The cleared […]

Aster-C = target: T3, Aster-C (Homo sapiens, UniProt Q8IYS0); test: Fluorescence polarisation (FP) competition with NBD-cholesterol, Aster-C; conditions: single dose, Dose = 10 µM
T3 construct: -C(318-504); GST (PreScission-cleavable) (N, cleaved yes); made in house; host or cells: E. coli OverExpress C41
T3 sequence (Q8IYS0 318-504): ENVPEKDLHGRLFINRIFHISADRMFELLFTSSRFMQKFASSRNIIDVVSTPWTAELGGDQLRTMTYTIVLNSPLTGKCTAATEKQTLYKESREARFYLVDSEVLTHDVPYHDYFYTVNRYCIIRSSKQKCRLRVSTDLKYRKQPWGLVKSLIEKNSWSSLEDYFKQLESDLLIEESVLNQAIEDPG
From the text: as §1, §2, §3, §4, §5, §6, §7, §8

Row | Structure (SMILES) | inhibition at 10 µM (STARD1) [%] | inhibition at 10 µM (OSBP) [%] | inhibition at 10 µM (Aster-C) [%] | STARD1 (FP) inhibition (STARD1) [%] | OSBP (FP) inhibition (OSBP) [%] | Aster-C (FP) inhibition (Aster-C) [%]
1 | Cc1cc2nc3c(nc2cc1C)[C@@]1(C)CC[C@@H](O)C[C@H]1CC3 [Compound 7b] | 12 | 24 | 0.8 |  |  | 
2 | C[C@]12CC[C@@H](O)C[C@H]1CCc1nc3cc(F)c(F)cc3nc12 [Compound 7c] |  |  |  | 12 | 8.0 | -4
3 | C[C@]12CC[C@@H](O)C[C@H]1CCc1nc3cc(Cl)c(Cl)cc3nc12 [Compound 7d] |  |  |  | 17 | -1.0 | -4
4 | C[C@]12CC[C@@H](O)C[C@H]1CCc1nc3cc(Br)c(Br)cc3nc12 [Compound 7e] |  |  |  | 13 | 3.0 | 1.6
5 | C[C@]12CC[C@@H](O)C[C@H]1CCc1sc(N)nc12 [Compound 8a] | 5 | 18.6 | 0 |  |  | 
6 | Cc1nc2c(s1)CC[C@@H]1C[C@H](O)CC[C@]21C [Compound 8b] |  |  |  | 8 | -1.3 | -1.6
7 | C[C@]12CC[C@@H](O)C[C@H]1CCc1sc(-c3cccnc3)nc12 [Compound 8c] |  |  |  | -1.67 | 17.3 | 0
8 | COc1ccc(-c2nc3c(s2)CC[C@@H]2C[C@H](O)CC[C@]32C)cc1 [Compound 8d] | 42 | 2.6 | 0.8 |  |  | 
9 | C[C@]12CC[C@@H](O)C[C@H]1CCc1sc(-c3ccc(F)cc3)nc12 [Compound 8e] |  |  |  | 17 | 1.3 | -2.4
10 | C[C@]12CC[C@@H](O)C[C@H]1CCc1[nH]c(-c3ccccc3)nc12 [Compound 9] | 10 | 5 | -3.2 |  |  | 
11 | C[C@]12CC[C@@H](O)C[C@H]1CCc1c2[nH]c2ccccc12 [Compound 10a] |  |  |  | 35 | 1.3 | 0.8
12 | C[C@]12CC[C@@H](O)C[C@H]1CCc1c2[nH]c2ccc(Br)cc12 [Compound 10b] |  |  |  | -23 | -12.0 | -5
13 | C[C@]12CC[C@@H](O)C[C@H]1CCc1c2[nH]c2ccc(Cl)cc12 [Compound 10c] |  |  |  | -12 | -10.0 | -8
14 | C[C@]12CC[C@@H](O)C[C@H]1CCc1c2[nH]c2ccc(F)cc12 [Compound 10d] |  |  |  | 90 | -7.0 | -3.2
15 | Cc1ccc2[nH]c3c(c2c1)CC[C@@H]1C[C@H](O)CC[C@]31C [Compound 10e] | -3.33 | -1.3 | 1.6 |  |  | 
16 | COc1ccc2[nH]c3c(c2c1)CC[C@@H]1C[C@H](O)CC[C@]31C [Compound 10f] | -1.67 | -6.7 | 0 |  |  | 
17 | CC12CCC(O)CC1CCc1c2[nH]c2ccc(C(F)(F)F)cc12 (stereo not drawn) [Compound 10g] | -35 | -8 | -5 |  |  | 
18 | C[C@]12CC[C@@H](O)C[C@H]1CCc1c2[nH]c2ccc(I)cc12 [Compound 10h] |  |  |  | 15 | 18.7 | 24
19 | C[C@]12CC[C@@H](O)C[C@H]1CCc1c2[nH]c2c(F)cc(Cl)cc12 [Compound 10i] | -13 | -9.3 | -1.6 |  |  | 
20 | Cc1cc(C)c2c3c([nH]c2c1)[C@@]1(C)CC[C@@H](O)C[C@H]1CC3 [Compound 10j] | 17 | -16 | 0.8 |  |  | 
21 | CCOC(=O)c1ccc2[nH]c3c(c2c1)CC[C@@H]1C[C@H](O)CC[C@]31C [Compound 10k] |  |  |  | -12 | 2.0 | -6
22 | C[C@]12CC[C@@H](O)C[C@H]1CCC(=O)c1ccccc1NC2=O [Compound 11a] |  |  |  | 7 | 2.7 | -3.2
23 | C[C@]12CC[C@@H](O)C[C@H]1CCC(=O)c1cc(Br)ccc1NC2=O [Compound 11b] | 0 | 12 | -2.4 |  |  | 
